The record followed here is patent US8513428B2, “Process for preparing atazanavir bisulfate and novel forms” (Bristol-Meyers Squibb Company, priority 2009, dated 2013).

Each structure is given as a SMILES string. Where a name gives a salt, the structure may show the parent alone.

This series in a line: moisture-sorption isotherms. It counts as physicochemical. Conditions: in the range from 25 to 75% RH at 25° C.

Consider `COC(=O)N[C@H](C(=O)N[C@@H](Cc1ccccc1)[C@@H](O)CN(Cc1ccc(-c2ccccn2)cc1)NC(=O)[C@@H](NC(=O)OC)C(C)(C)C)C(C)(C)C` [Form A, 1-[4-(Pyridin-2-yl)phenyl]-5(S)-2,5-bis{[N-(methoxycarbonyl)-L-tert-leucinyl]amino}-4-(S)-hydroxy-6-phenyl-2-azahexane, Bisulfate salt (Form A)], for which the “moisture-sorption isotherms weight gain” value was “about 0.1%”.
